Test results reported in paper PMC4834642, “Orthogonal ring-closing alkyne and olefin metathesis for the synthesis of small GTPase-targeting bicyclic peptides” (Nature Communications, 2016).
Bridge positions count the residues as written; N and C are the ends. Square brackets hold non-standard residues; d marks the D form. Peptide text beside a SMILES is read from it. * marks the point of attachment. FITC = O=C1OC2(c3ccc(O)cc3Oc3cc(O)ccc32)c2ccc(NC(=S)*)cc21; S5 = C=CCCC[C@](C)(N)C(=O)O; AEEA = NCCOCCOCC(=O)O

Assays:
[1] = On-resin ring-closing alkyne metathesis (RCAM), alpha-methyl-alpha-alkynyl residues at i,i+4, Mo alkylidyne complex 5 (2 mg/mL, 2 x 0.5 mL), Ar bubbling to remove 2-butyne; bicyclic entries (24-29) additionally closed by RCM (Grubbs I); conditions: the molecule shown is the open-chain precursor, toluene, 40.0 °C, 3.0 h
Rab8a6-176(GppNHp) = target: T1, Rab8a6-176(GppNHp) (Homo sapiens, UniProt P61006); assay: Fluorescence polarization (FP) binding assay of fluorescein-labelled peptides; conditions: for Rel. Kd (Kd [Peptide]/Kd [StRIP3]) / Kd: FP, fluorescein-PEG labelled peptide 66 nM, 4 h room temperature, 25 mM HEPES pH 7.5; for Rel. Kd (Kd [Peptide]/Kd [StRIP3]): Kd values are single point measurements (n = 1); for Kd: average of triplicate measurements, errors 1σ
T1 construct: Expression and purification of Rab8a6-176 was performed analog to full-length Rab8a; made in house
T1 sequence (P61006 6-176): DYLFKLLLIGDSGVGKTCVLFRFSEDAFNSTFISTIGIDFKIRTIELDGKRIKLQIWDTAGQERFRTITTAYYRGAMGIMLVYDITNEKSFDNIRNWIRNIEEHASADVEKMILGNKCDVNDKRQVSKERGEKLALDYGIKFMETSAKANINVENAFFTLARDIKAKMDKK
Method: Rab8a6–176(GppNHp) was serially diluted in a buffer containing 25 mM HEPES (pH 7.5), 150 mM NaCl, 1 mM MgCl2, 1 mM TCEP, 0.01% Tween 20 and 1 μM GppNHp, treated with 66 nM fluorescein-labelled peptides and incubated for 4 h at room temperature. Fluorescence polarization values (λex=470 nm, λem=525 nm) were determined at room temperature. Initial studies for alkyne macrocyclized peptides were performed as single measurements. Final affinity measurements of a subset of peptides were performed in triplicates. After correction for changes in fluorescence intensity upon binding, the fluorescence anisotoropy data were converted into fraction bound of the FITC-labelled peptide and fitted to a one-site binding model derived from the law of mass action using Kd as the only fitting parameter (for details, see Supplementary Methods)[63]. Nonlinear regression was performed in Prism 5.0 (Graphpad)[64]. […]
using a PD-10 desalting column Sephadex G-25 DNA Grade (GE Healthcare) with elution buffer consisting of 20 mM HEPES (pH 7.5), 50 mM NaCl, 1 mM TCEP. After removal of Mg2+ the protein was diluted to 80 - 100 µM before addition of ZnCl2 (500 µM) and (NH4)2SO4 (200 mM). After addition of alkaline phosphatase (5 U mg-1 Rab protein) the mixture was incubated for 16 h at 4°C. For nucleotide exchange, the mixture contained a 5-fold excess of GppNHp during alkaline phosphatase incubation. Afterwards, the mixture was desalted using a PD-10 desalting column Sephadex G-25 DNA Grade (GE Healthcare) with elution buffer consisting of 25 mM HEPES (pH 7.5) 150 mM NaCl, 1 mM TCEP, 1 mM MgCl2 and 1 µM GppNHp.
Fluorescence polarization assay for the determination of dissociation […]
Rab8a6-176 was serially diluted in a buffer containing 25 mM HEPES (pH 7.5), 150 mM NaCl, 1 mM MgCl2, 1 mM TCEP, 0.01% tween 20 and 1 µM GppNHp (assay buffer), treated with 66 nM fluorescein-labeled peptides and incubated for 4 h at room temperature. Binding assays were performed in 384-well, small volume, black flat-bottom, non-binding plates (Greiner). Fluorescence polarization values (λex = 470 nm, λem = 525 nm) were determined using a Safire II plate reader (Tecan) at room temperature. Initial studies for alkyne macrocyclized peptides were performed as single measurements. Final affinity measurements of a subset of peptides were performed in triplicates. After correction for changes in fluorescence intensity upon binding, the fluorescence anisotoropy data were converted into fraction bound (Supplementary equation 1) of the FITC- labeled peptide and fitted to a one-site binding model derived from the law of mass action using Kd as the only fitting parameter (Supplementary equation 2).4 In case of incomplete binding due to the limited solubility of Rab proteins, anisotropy top-values were extrapolated and constrained as indicated below. Non-linear regression was performed in Prism 5.0 […]
(Supplementary equation 1)
A: observed anisotropy; Afree: anisotropy of free fluorophore; Abound: anisotoropy of bound fluorophore; Q: change in fluorescence intensity between free and bound state […]
(Supplementary equation 2)
Kd: dissociation constant; LT: total concentration of labeled peptide; cRab: protein concentration Microscale Thermophoresis (MST)

SMILES | Rel. Kd (Kd [Peptide]/Kd [StRIP3]) (Rab8a6-176(GppNHp)) | Kd (Rab8a6-176(GppNHp)) | also measured
CC#CCCCC[C@](C)(NC(=O)[C@H](Cc1ccccc1)NC(=O)[C@H](CCC(=O)NC(c1ccccc1)(c1ccccc1)c1ccccc1)NC(=O)[C@H](CCC(=O)OC(C)(C)C)NC(=O)[C@](C)(CCCCC#CC)NC(=O)[C@H](CCC(=O)OC(C)(C)C)NC(=O)[C@H](CC(=O)OC(C)(C)C)NC(=O)[C@H](CC(=O)OC(C)(C)C)NC(=O)OCC1c2ccccc2-c2ccccc21)C(=O)N[C@@H](Cc1ccc(OC(C)(C)C)cc1)C(=O)N[C@@H](Cc1cn(C(c2ccccc2)(c2ccccc2)c2ccccc2)cn1)C(=O)N[C@@H](CC(C)C)C(=O)N[C@@H](CC(C)C)C(=O)N[C@@H](COC(C)(C)C)C(=O)N[C@@H](Cc1ccccc1)C(=O)N[C@@H](CC(=O)NC(c1ccccc1)(c1ccccc1)c1ccccc1)C(=O)N[C@@H](C)C(=O)N[C@H](C(N)=O)C(C)C |  |  | ring closure, overall yield ([1]; 23-membered ring): 16%
CC#CCCCC[C@](C)(NC(=O)[C@H](CCC(=O)OC(C)(C)C)NC(=O)[C@H](CC(=O)OC(C)(C)C)NC(=O)[C@H](CC(=O)OC(C)(C)C)NC(=O)OCC1c2ccccc2-c2ccccc21)C(=O)N[C@@H](CCC(=O)OC(C)(C)C)C(=O)N[C@@H](CCC(=O)NC(c1ccccc1)(c1ccccc1)c1ccccc1)C(=O)N[C@@H](Cc1ccccc1)C(=O)N[C@@](C)(CCCC#CC)C(=O)N[C@@H](Cc1ccc(OC(C)(C)C)cc1)C(=O)N[C@@H](Cc1cn(C(c2ccccc2)(c2ccccc2)c2ccccc2)cn1)C(=O)N[C@@H](CC(C)C)C(=O)N[C@@H](CC(C)C)C(=O)N[C@@H](COC(C)(C)C)C(=O)N[C@@H](Cc1ccccc1)C(=O)N[C@@H](CC(=O)NC(c1ccccc1)(c1ccccc1)c1ccccc1)C(=O)N[C@@H](C)C(=O)N[C@H](C(N)=O)C(C)C |  |  | ring closure, overall yield ([1]; 22-membered ring): 23%
CC(C)C[C@H](NC(=O)[C@H](Cc1c[nH]cn1)NC(=O)[C@H](Cc1ccc(O)cc1)NC(=O)[C@]1(C)CCCCC#CCCC[C@](C)(NC(=O)[C@H](CCC(=O)O)NC(=O)[C@H](CC(=O)O)NC(=O)[C@H](CC(=O)O)NC(=O)COCCOCCNC(=S)Nc2ccc3c(c2)C(=O)OC32c3ccc(O)cc3Oc3cc(O)ccc32)C(=O)N[C@@H](CCC(=O)O)C(=O)N[C@@H](CCC(N)=O)C(=O)N[C@@H](Cc2ccccc2)C(=O)N1)C(=O)N[C@@]1(C)CCC/C=C\CCC[C@@](C)(C(=O)N[C@H](C(N)=O)C(C)C)NC(=O)[C@H](CC(N)=O)NC(=O)[C@H](Cc2ccccc2)NC(=O)[C@H](CO)NC1=O [compound 28] | 0.42 |  | 
CC(C)C[C@H](NC(=O)[C@H](CC(C)C)NC(=O)[C@H](Cc1c[nH]cn1)NC(=O)[C@H](Cc1ccc(O)cc1)NC(=O)[C@]1(C)CCCCC(Br)=C(Br)CCCC[C@](C)(NC(=O)[C@H](CCC(=O)O)NC(=O)[C@H](CC(=O)O)NC(=O)[C@H](CC(=O)O)NC(=O)COCCOCCNC(=S)Nc2ccc3c(c2)C(=O)OC32c3ccc(O)cc3Oc3cc(O)ccc32)C(=O)N[C@@H](CCC(=O)O)C(=O)N[C@@H](CCC(N)=O)C(=O)N[C@@H](Cc2ccccc2)C(=O)N1)C(=O)N[C@@H](CO)C(=O)N[C@@H](Cc1ccccc1)C(=O)N[C@@H](CC(N)=O)C(=O)N[C@@H](C)C(=O)N[C@H](C(N)=O)C(C)C [peptide 21] | 0.40 | 10.7 ± 0.5 µM | Increase in binding affinity compared with StRIP3 (Rab8a6-176(GppNHp); FP Kd, Rab8a6-176(GppNHp)): 2 fold
CC(C)C[C@H](NC(=O)[C@H](CC(C)C)NC(=O)[C@H](Cc1c[nH]cn1)NC(=O)[C@H](Cc1ccc(O)cc1)NC(=O)[C@]1(C)CCC/C=C\CCC[C@](C)(NC(=O)[C@H](CCC(=O)O)NC(=O)[C@H](CC(=O)O)NC(=O)[C@H](CC(=O)O)NC(=O)COCCOCCNC(=S)Nc2ccc3c(c2)C(=O)OC32c3ccc(O)cc3Oc3cc(O)ccc32)C(=O)N[C@@H](CCC(=O)O)C(=O)N[C@@H](CCC(N)=O)C(=O)N[C@@H](Cc2ccccc2)C(=O)N1)C(=O)N[C@@H](CO)C(=O)N[C@@H](Cc1ccccc1)C(=O)N[C@@H](CC(N)=O)C(=O)N[C@@H](C)C(=O)N[C@H](C(N)=O)C(C)C [StRIP3] ({FITC-AEEA}-DDE[S5]EQF[S5]YHLLSFNAV-NH2; staple (Z) 4-8; C-terminus assumed) | 1.00 | 20.7 ± 0.7 µM | 
